Test results taken from US20230293535A1, “ERBB/BTK INHIBITORS” (Dizal (Jiangsu) Pharmaceutical Co., Ltd., priority 2018, published 2023).
pIC50: −log10 of the molar value.

What was measured:
Type in all cases: cell-based
[1] = biological target: T1, EGFR L858R&T790M (Homo sapiens, UniProt P00533, L858R/T790M); experiment: EGFR L858R and T790M cellular phosphorylation inhibition in NCI-H1975 (MSD); details: NCI-H1975 cells, 4 h compound, p-EGFR(Y1068)/total EGFR; read-out: EGFR L858R and T790M mutation IC50;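 note: phosphorylated and total EGFR detected by electrochemiluminescence, cells exposed to compound in medium containing 1% FBS at 37 °C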
T1 construct: host or cells: NCI-H1975
T1 sequence (P00533 25-1210 T790M/L858R): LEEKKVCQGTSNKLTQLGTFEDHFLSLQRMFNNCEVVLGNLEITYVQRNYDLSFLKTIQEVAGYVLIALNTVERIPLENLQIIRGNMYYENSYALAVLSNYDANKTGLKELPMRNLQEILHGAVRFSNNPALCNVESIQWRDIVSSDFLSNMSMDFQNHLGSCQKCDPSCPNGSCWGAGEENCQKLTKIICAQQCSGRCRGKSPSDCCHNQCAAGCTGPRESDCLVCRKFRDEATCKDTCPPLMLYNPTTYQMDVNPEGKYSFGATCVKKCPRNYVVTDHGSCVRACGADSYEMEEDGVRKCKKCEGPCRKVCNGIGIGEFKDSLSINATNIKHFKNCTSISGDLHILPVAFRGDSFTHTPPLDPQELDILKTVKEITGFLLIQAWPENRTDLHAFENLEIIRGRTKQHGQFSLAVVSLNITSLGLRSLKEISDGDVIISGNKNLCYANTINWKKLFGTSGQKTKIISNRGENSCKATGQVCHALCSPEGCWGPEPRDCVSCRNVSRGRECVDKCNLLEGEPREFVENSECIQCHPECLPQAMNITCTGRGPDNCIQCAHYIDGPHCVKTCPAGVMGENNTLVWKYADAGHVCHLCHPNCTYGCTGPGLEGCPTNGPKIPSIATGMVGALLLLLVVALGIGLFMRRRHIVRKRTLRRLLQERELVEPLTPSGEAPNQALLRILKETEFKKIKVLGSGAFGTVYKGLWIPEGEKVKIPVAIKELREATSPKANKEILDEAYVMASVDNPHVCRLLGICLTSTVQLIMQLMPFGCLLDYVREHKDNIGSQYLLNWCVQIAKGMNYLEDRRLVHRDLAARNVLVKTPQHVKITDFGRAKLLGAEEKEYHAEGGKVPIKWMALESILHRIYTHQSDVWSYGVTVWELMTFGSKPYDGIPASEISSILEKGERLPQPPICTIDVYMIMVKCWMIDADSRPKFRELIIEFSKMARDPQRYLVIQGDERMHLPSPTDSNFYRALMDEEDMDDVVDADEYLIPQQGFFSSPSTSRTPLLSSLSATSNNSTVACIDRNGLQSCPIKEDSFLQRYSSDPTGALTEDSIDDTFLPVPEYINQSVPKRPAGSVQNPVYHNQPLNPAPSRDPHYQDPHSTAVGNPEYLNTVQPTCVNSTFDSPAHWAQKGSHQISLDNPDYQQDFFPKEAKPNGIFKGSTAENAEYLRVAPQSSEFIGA

[2] = tested on: Her2 exon 20 insertion YVMA transduced NIH-3T3 cell line; experiment: Cell proliferation, Her2 YVMAins NIH-3T3 (CellTiter-Glo, 72 h); details: Mus musculus, NIH3T3, 72 h, Her2 YVMAins cells, 72 h proliferation; read-out: Her2 Exon 20 YVMA insertion GI50;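 note: viable cells quantified by ATP luminescence, growth over a day-zero baseline plate expressed as percent of DMSO control growth, compound dilution series in 10% FBS medium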
[3] = biological target: T2, WT EGFR (Homo sapiens, UniProt P00533); experiment: WT EGFR cellular phosphorylation inhibition in A-431 (hEGF stimulated, MSD); details: A431 cells, 4 h compound, then 100 ng/ml hEGF 10 min;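 note: electrochemiluminescence read-out of EGFR Tyr1068 phosphorylation expressed as ratio to total EGFR, cells kept in medium with 1% FBS, compounds tested as a concentration series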
T2 construct: host or cells: A-431
T2 sequence (P00533 25-1210): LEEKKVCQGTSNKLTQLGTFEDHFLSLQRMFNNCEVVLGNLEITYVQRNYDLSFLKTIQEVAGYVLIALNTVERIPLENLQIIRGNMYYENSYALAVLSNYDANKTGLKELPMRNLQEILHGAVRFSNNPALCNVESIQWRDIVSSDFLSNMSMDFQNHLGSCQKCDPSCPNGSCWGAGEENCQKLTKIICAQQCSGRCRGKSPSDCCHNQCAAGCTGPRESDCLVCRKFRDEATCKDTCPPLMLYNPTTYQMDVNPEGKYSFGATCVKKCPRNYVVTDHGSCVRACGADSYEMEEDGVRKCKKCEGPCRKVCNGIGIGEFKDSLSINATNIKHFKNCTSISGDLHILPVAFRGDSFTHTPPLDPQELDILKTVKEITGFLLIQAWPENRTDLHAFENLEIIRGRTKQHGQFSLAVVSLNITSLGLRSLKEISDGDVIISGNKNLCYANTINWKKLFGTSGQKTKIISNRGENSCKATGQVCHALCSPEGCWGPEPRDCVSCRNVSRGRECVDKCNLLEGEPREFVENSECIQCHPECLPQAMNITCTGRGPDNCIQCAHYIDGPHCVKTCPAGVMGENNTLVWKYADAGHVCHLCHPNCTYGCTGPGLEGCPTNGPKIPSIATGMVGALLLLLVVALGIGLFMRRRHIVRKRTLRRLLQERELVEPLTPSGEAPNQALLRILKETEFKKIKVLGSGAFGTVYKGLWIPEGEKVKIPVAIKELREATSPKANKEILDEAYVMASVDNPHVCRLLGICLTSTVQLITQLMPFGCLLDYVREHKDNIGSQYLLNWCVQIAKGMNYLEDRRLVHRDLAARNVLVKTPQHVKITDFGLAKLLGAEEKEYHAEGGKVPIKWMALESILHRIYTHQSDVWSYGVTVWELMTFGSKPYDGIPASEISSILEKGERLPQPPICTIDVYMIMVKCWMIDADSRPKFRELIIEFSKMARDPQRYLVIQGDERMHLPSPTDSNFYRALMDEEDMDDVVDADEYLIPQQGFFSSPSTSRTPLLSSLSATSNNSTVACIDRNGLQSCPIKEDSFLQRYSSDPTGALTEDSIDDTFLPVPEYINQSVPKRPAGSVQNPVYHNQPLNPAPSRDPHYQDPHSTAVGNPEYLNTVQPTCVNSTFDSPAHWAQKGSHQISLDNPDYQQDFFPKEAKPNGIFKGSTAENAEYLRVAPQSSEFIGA

[4] = tested on: TMD-8 cells; experiment: BTK (wt) cell proliferation, TMD-8 (CellTiter-Glo, 72 h); details: Homo sapiens, TMD8, 72 h, TMD-8 cells, 72 h, CellTiter-Glo; read-out: BTK WT TMD-8 GI50;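 note: viable cells quantified by ATP-based luminescence, proliferation expressed as percent of DMSO control after subtracting a time-zero baseline plate read at dosing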
[5] = tested on: OCI-LY-10 cells; experiment: BTK (wt) cell proliferation, OCI-LY-10 (CellTiter-Glo, 72 h); details: Homo sapiens, OCI-Ly10, 72 h, OCI-LY-10 cells, 72 h, CellTiter-Glo; read-out: BTK WT OCI-LY-10 GI50;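 note: viable cells quantified via cellular ATP luminescence, proliferation given as percent of DMSO control after subtracting a duplicate plate read at time of dosing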
[6] = biological target: T3, human Her2 exon 20 insertion mutation YVMA (Homo sapiens, UniProt P04626, INS775YVMA); experiment: Her2 Exon 20 YVMA insertion cellular phosphorylation inhibition (MSD p-Her2 Y1248/total Her2); details: Her2 YVMAins cells, 4 h compound;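 note: lentivirally transduced NIH-3T3 cells in 1% FBS medium, electrochemiluminescent MSD read-out, graded compound concentrations at 37 °C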
T3 construct: expressed in transfected cells; host or cells: NIH-3T3, lentiviral transduction, puromycin selection
T3 sequence (P04626 with tags, fused parts or gaps INS775YVMA): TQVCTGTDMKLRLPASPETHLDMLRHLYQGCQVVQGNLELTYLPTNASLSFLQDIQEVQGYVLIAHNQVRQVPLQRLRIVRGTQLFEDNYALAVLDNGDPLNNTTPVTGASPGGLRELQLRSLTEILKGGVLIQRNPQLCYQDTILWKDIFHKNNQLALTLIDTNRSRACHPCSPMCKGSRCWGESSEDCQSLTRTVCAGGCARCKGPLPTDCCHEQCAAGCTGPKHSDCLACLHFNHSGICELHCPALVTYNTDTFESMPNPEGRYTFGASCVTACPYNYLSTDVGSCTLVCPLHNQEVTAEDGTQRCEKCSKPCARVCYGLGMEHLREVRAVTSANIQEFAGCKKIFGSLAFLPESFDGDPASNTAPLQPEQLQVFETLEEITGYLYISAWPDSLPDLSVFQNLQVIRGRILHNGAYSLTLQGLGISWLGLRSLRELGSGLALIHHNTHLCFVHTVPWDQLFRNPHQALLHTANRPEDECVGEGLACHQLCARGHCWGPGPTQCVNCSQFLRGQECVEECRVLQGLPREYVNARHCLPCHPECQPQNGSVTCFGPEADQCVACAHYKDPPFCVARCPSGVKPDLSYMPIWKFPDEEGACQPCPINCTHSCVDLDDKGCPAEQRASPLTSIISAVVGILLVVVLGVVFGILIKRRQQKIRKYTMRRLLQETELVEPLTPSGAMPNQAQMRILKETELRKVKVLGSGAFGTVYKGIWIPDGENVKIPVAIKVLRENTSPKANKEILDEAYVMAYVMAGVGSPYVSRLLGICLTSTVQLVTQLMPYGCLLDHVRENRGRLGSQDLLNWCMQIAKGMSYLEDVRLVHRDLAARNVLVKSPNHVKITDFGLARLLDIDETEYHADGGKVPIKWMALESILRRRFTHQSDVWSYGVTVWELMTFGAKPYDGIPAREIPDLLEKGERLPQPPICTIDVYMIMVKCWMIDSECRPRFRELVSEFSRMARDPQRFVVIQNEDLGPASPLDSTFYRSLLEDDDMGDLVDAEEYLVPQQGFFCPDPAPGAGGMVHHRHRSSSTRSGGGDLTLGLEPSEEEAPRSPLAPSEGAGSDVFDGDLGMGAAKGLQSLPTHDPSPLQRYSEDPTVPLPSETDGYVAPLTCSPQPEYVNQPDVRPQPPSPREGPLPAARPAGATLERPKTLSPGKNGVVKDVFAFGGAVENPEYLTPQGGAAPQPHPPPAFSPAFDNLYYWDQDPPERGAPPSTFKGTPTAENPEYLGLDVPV

[7] = biological target: T4, human EGFR exon 20 H773_V774insNPH (Homo sapiens, UniProt P00533, INS773NPH); experiment: EGFR Exon20 NPH insertion cellular phosphorylation inhibition (MSD pEGFR Y1068/total EGFR); details: Ba/F3 EGFR NPH ins cells, 4 h compound, p-EGFR(Y1068)/total EGFR;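 note: IL3-independent Ba/F3 cells with constitutively phosphorylated EGFR, compound exposure at 37 °C under 5% CO2, electrochemiluminescent MSD measurement of the p-EGFR to total EGFR ratio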
T4 construct: host or cells: Ba/F3
T4 sequence (P00533 with tags, fused parts or gaps INS773NPH): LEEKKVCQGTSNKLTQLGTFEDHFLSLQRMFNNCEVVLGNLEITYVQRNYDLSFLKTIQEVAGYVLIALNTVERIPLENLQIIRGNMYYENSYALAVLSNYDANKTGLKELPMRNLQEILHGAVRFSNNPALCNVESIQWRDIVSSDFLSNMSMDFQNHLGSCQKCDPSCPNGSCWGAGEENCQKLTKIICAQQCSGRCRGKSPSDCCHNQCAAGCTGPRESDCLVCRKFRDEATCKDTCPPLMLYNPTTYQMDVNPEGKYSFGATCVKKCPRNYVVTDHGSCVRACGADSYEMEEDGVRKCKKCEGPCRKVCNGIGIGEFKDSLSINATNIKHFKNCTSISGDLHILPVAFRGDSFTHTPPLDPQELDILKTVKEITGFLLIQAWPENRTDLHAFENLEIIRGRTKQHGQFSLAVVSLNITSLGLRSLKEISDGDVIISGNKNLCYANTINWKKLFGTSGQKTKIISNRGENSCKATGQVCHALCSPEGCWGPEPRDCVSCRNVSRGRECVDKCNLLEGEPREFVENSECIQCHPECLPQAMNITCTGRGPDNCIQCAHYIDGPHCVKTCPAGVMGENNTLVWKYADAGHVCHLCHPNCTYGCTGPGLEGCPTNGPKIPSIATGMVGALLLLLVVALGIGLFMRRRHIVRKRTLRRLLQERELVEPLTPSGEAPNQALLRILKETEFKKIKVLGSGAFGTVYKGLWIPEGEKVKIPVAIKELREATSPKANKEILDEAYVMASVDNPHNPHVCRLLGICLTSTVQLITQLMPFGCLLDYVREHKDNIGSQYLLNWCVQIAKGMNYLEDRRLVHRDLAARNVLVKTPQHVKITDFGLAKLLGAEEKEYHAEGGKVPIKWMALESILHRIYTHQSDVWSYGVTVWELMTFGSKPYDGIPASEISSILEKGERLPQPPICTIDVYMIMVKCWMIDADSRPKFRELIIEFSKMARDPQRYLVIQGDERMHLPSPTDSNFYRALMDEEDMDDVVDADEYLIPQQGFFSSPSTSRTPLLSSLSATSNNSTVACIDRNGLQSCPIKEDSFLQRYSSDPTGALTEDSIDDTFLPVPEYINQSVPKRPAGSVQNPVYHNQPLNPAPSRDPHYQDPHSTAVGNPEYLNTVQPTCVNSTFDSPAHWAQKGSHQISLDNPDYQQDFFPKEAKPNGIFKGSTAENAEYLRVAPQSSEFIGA
Protocol: One day before the test, WT or mutant cells were seeded in 96 well plates at appropriate concentrations with corresponding growth media supplemented with 1% FBS, and incubated overnight. The next day, tested compounds at a series of concentrations were added into each individual well of the plates, and the plates were incubated for 4 h at 37° C. with 5% CO2.
The EGFR (Y1068) phosphorylation level (activity) of cells in each well were then measured with MSD kit named “MULTI-SPOT®96 4-Spot HB Prototype EGFR Triplex [sequence]: pEGFR(Tyr1068),pEGFR(Tyr1173), Total EGFR” according to the manufacturer’s instruction (MESO SCALE DISCOVERY, Cat# N45ZB-1). The assay is an electrochemiluminescent method for determining both phosphorylated and total EGFR of cells with an MSD SECTOR® Imager and the ratio of p-EGFR/total EGFR can be generated by the machine.

[8] = tested on: Ba/F3 EGFR NPH ins cells; experiment: Cell proliferation, Ba/F3 EGFR NPH ins (CellTiter-Glo, 72 h); details: Ba/F3 EGFR, 72 h, Ba/F3 EGFR NPH ins, 72 h proliferation; read-out: EGFR Exon20 NPH insertion GI50;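 note: IL3-independent cells carrying constitutively phosphorylated EGFR, compound dilution series, viable cells quantified by ATP luminescence, growth relative to DMSO wells after subtracting pre-dosing (day 0) baseline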
[9] = biological target: T5, human EGFR exon 20 V769_D770insASV (Homo sapiens, UniProt P00533, INS769ASV); experiment: EGFR Exon20 ASV insertion cellular phosphorylation inhibition (MSD pEGFR Y1068/total EGFR); details: Ba/F3 EGFR ASV ins cells, 4 h compound, p-EGFR(Y1068)/total EGFR;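 note: electrochemiluminescent readout on an MSD SECTOR Imager, IL3-independent transduced cells in medium with 1% FBS, compound concentration series at 37 °C and 5% CO2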
T5 construct: expressed in transfected cells; host or cells: Ba/F3 (DSMZ ACC-300), lentiviral transduction, puromycin selection, IL3 depletion

[10] = tested on: Ri-1 cells; experiment: BTK (wt) cell proliferation, Ri-1 (CellTiter-Glo, 72 h); details: Ri-1, 72 h, Ri-1 cells, 72 h, CellTiter-Glo; read-out: BTK WT Ri-1 GI50;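 note: viable cells quantified as cellular ATP luminescence, proliferation normalized to a time-zero plate and the DMSO control, compounds tested across a dilution series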
[11] = tested on: WT EGFR cell line A-431; experiment: Cell proliferation, WT EGFR A431 (CellTiter-Glo, 72 h); details: Homo sapiens, A-431, 72 h, A431, 72 h proliferation; read-out: EGFR WT A431 GI50;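 note: proliferation from a luminescent ATP viability signal, expressed as 100 × (treated minus time-zero plate) over (DMSO control minus time-zero plate), cells grown with 10% FBS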
[12] = tested on: DB cells; experiment: BTK (wt) cell proliferation, DB (CellTiter-Glo, 72 h); details: Homo sapiens, DB, DB cells, CellTiter-Glo, read-out: Non-BCR activated DB GI50;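 note: DB cells in 384-well plates given a dilution series of compound, viable cells read by ATP luminescence, growth expressed versus DMSO control after subtracting a time-zero plate reading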
[13] = tested on: NCI-H1975 EGFR L858R/T790M cells; experiment: Cell proliferation, NCI-H1975 EGFR L858R/T790M (CellTiter-Glo, 72 h); details: Homo sapiens, NCI-H1975, 72 h, NCI-H1975, 72 h proliferation; read-out: EGFR L858R and T790M mutation GI50;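 note: viable cells quantified by luciferase-based ATP luminescence, proliferation expressed relative to DMSO-treated wells (100%) after subtracting a parallel plate read at the time of dosing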
[14] = tested on: Ba/F3 EGFR ASV ins cells; experiment: Cell proliferation, Ba/F3 EGFR ASV ins (CellTiter-Glo, 72 h); details: Ba/F3 EGFR, 72 h, Ba/F3 EGFR ASV ins, 72 h proliferation; read-out: EGFR Exon20 ASV insertion GI50;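 note: IL3-independent Ba/F3 cells transduced with EGFR V769_D770insASV, cellular ATP luminescence after compound exposure, growth relative to DMSO control with the day-0 baseline reading subtracted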

Row | SMILES | pIC50 [1] | GI50 [2] [nM] | pIC50 [3] | GI50 [4] [nM] | GI50 [5] [nM] | pIC50 [6] | pIC50 [7] | GI50 [8] [nM] | pIC50 [9] | GI50 [10] [nM] | GI50 [11] [nM] | GI50 [12] [nM] | GI50 [13] [nM] | GI50 [14] [nM]
1 | C=CC(=O)Nc1cc(Nc2ncnc(Nc3cc(Cl)c(F)cc3C(C)(C)O)n2)c(OC)cc1N(C)CCN1CCCCC1 [Compound 26, N-(5-(4-(5-chloro-4-fluoro-2-(2-hydroxypropan-2-yl)phenylamino)-1,3,5-triazin-2-ylamino)-4-methoxy-2-(methyl(2-(piperidin-1-yl)ethyl)amino)phenyl)acrylamide] | 8.89 | 253 | 6.99 | 12.6 | 45.3 | 8.02 | 7.36 | 123 | 7.39 | 50.5 | 57.8 | > 3000 | 32.4 | 99.5
2 | C=CC(=O)Nc1cc(Nc2ncnc(Nc3cc(F)c(F)cc3C(C)(C)O)n2)c(OC)cc1N1CC[C@@H](N(C)C)C1 [Compound 27, (R)-N-(5-(4-(4,5-difluoro-2-(2-hydroxypropan-2-yl)phenylamino)-1,3,5-triazin-2-ylamino)-2-(3-(dimethylamino)pyrrolidin-1-yl)-4-methoxyphenyl)acry lamide] | 9.15 | 106 | 7.46 | 11.6 | 17.7 | 7.81 | 7.55 | 57.9 | 7.71 | 120 | 26.2 | > 3000 | 5.2 | 64.7
3 | C=CC(=O)Nc1cc(Nc2ncnc(Nc3cc(Cl)c(F)cc3C(C)(C)O)n2)c(OC)cc1N1CC[C@@H]2CN(C)C[C@@H]21 [Compound 28, N-(5-(4-(5-chloro-4-fluoro-2-(2-hydroxypropan-2-yl)phenylamino)-1,3,5-triazin-2-ylamino)-4-methoxy-2-((3aR,6aR)-5-methylhexahydropyrrolo[3,4-b]pyrrol-1 (2H)-yl)phenyl)acrylamide] | 8.85 | 114 | 7.38 | 34 | 119 | 7.82 | 7.30 | 67.7 | 7.66 | 230 | 21.2 | > 3000 | 8.9 | 58.2
4 | C=CC(=O)Nc1cc(Nc2ncnc(Nc3cc(Cl)c(F)cc3C(C)(C)O)n2)c(OC)cc1N(C)CCN1CCCC1 [Compound 29, N-(5-(4-(5-chloro-4-fluoro-2-(2-hydroxypropan-2-yl)phenylamino)-1,3,5-triazin-2-ylamino)-4-methoxy-2-(methyl(2-(pyrrolidin-1-yl)ethyl)amino)phenyl)acrylamide] | 9.00 | 68.3 | 7.34 | 11.3 | 35.5 | 8.12 | 7.64 | 52.7 | 7.76 | 44.8 | 20.1 | > 3000 | 6.9 | 45.2
5 | C=CC(=O)Nc1cc(Nc2ncnc(Nc3cc(Cl)c(F)cc3C(C)(C)O)n2)c(OC)cc1N(C)C[C@H]1CCCN1C [Compound 30, (R)-N-(5-(4-(5-chloro-4-fluoro-2-(2-hydroxypropan-2-yl)phenylamino)-1,3,5-triazin-2-ylamino)-4-methoxy-2-(methyl((1-methylpyrrolidin-2-yl)methyl)amino)phenyl) acrylamide] | 9.30 | 47.5 | 7.88 | 17.8 | 13.1 | 8.26 | 7.95 | 19.3 | 8.24 | 28.6 | 12.4 | > 3000 | 3.7 | 25.9
6 | C=CC(=O)Nc1cc(Nc2ncnc(Nc3cc(Cl)c(F)cc3C(C)(C)O)n2)c(OC)cc1N1CCC[C@@H]1CN(C)C [Compound 31, (R)-N-(5-(4-(5-chloro-4-fluoro-2-(2-hydroxypropan-2-yl)phenylamino)-1,3,5-triazin-2-ylamino)-2-(2-((dimethylamino)methyl)pyrrolidin-1-yl)-4-methoxyphenyl)acrylamide] | 9.30 | 60.1 | 8.26 | 7.18 | 30 | 8.37 | 7.86 | 47.9 | 8.30 | 59.9 | 4.2 | > 3000 | 4.2 | 9.2
7 | C=CC(=O)Nc1cc(Nc2ncnc(Nc3cc4ccn(C)c4cc3C(C)(C)O)n2)c(OC)cc1N(C)CCN(C)C [Compound 32, N-(2-((2-(dimethylamino)ethyl)(methyl)amino)-5-(4-(6-(2-hydroxypropan-2-yl)-1-methyl-1H-indol-5-ylamino)-1,3,5-triazin-2-ylamino)-4-methoxyphenyl)acrylamide] | 9.40 | 35.2 | 7.96 | 0.26 | 0.29 | 8.11 | 7.83 | 19.1 | 8.43 | 0.71 | 6 | > 3000 | 1.8 | 19.3
8 | C=CC(=O)Nc1cc(Nc2ncnc(Nc3cc(F)c(C4CC4)cc3C(C)(C)O)n2)c(OC)cc1N(C)CCN(C)C [Compound 34, N-(5-(4-(4-cyclopropyl-5-fluoro-2-(2-hydroxypropan-2-yl)phenylamino)-1,3,5-triazin-2-ylamino)-2-((2-(dimethylamino)ethyl)(methyl)amino)-4-methoxyphenyl)acrylamide] | 9.30 | 21.1 | 8.22 | 12.3 | 7.6 | 8.38 | 8.21 | 16.4 | 8.36 | 16.6 | 7.5 | > 3000 | 1.6 | 17.6
9 | C=CC(=O)Nc1cc(Nc2ncnc(Nc3cc(F)c(F)cc3C(C)(C)O)n2)c(OC)cc1N1CCOC[C@@H]1CN(C)C [Compound 35, (S)-N-(5-(4-(4,5-difluoro-2-(2-hydroxypropan-2-yl)phenylamino)-1,3,5-triazin-2-ylamino)-2-(3-((dimethylamino)methyl)morpholino)-4-methoxyphenyl) acrylamide] | 9.30 | 39.4 | 7.86 | 377 | 986 | 8.33 | 8.04 | 22.2 | 8.27 | 699 | 21.9 | > 3000 | 1.5 | 24.3
10 | C=CC(=O)Nc1cc(Nc2ncnc(Nc3cc(Cl)c(F)cc3C(C)(C)O)n2)c(OC)cc1N1CCOC[C@@H]1CN(C)C [Compound 40, (S)-N-(5-(4-(5-chloro-4-fluoro-2-(2-hydroxypropan-2-yl)phenylamino)-1,3,5-triazin-2-ylamino)-2-(3-((dimethylamino)methyl)morpholino)-4-methoxyphenyl)acrylamide] | 9.05 | 43.4 | 7.71 | 15.1 | 15.1 | 8.30 | 7.96 | 22 | 7.89 | 11.9 | 13.6 | > 3000 | 2.1 | 25.7
